This note sets out measurements from patent US20250302832A1, “PYRAZINE DERIVATIVES AND USES THEREOF” (FOGHORN THERAPEUTICS INC., priority 2022, published 2025).

In one experiment the target is T1, HiBit-BRM fusion protein (Homo sapiens, UniProt P51531).
T1 construct: expressed in transfected cells
The experiment in a line: HiBiT-BRM cell-based degradation assay (Nano-Glo HiBiT lytic detection, 24 h). Conditions: HeLa cell line expressing HiBiT-BRM; for DC50: read-out: BRM HiBit Degradation IC50. The method in brief: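 Luminescence from LgBiT complementation quantified remaining HiBiT-BRM in stably expressing HeLa cells after 24 h compound exposure (top final dose 30 μM, 3-fold, 10 points, duplicate). Degradation expressed as percent relative to DMSO and a 2 μM reference degrader.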

In experiment [1] the target is T2, HiBit-BRG1 fusion protein (Homo sapiens, UniProt P51532).
T2 construct: expressed in transfected cells
T2 sequence (P51532 whole entry, the tested form may be a part): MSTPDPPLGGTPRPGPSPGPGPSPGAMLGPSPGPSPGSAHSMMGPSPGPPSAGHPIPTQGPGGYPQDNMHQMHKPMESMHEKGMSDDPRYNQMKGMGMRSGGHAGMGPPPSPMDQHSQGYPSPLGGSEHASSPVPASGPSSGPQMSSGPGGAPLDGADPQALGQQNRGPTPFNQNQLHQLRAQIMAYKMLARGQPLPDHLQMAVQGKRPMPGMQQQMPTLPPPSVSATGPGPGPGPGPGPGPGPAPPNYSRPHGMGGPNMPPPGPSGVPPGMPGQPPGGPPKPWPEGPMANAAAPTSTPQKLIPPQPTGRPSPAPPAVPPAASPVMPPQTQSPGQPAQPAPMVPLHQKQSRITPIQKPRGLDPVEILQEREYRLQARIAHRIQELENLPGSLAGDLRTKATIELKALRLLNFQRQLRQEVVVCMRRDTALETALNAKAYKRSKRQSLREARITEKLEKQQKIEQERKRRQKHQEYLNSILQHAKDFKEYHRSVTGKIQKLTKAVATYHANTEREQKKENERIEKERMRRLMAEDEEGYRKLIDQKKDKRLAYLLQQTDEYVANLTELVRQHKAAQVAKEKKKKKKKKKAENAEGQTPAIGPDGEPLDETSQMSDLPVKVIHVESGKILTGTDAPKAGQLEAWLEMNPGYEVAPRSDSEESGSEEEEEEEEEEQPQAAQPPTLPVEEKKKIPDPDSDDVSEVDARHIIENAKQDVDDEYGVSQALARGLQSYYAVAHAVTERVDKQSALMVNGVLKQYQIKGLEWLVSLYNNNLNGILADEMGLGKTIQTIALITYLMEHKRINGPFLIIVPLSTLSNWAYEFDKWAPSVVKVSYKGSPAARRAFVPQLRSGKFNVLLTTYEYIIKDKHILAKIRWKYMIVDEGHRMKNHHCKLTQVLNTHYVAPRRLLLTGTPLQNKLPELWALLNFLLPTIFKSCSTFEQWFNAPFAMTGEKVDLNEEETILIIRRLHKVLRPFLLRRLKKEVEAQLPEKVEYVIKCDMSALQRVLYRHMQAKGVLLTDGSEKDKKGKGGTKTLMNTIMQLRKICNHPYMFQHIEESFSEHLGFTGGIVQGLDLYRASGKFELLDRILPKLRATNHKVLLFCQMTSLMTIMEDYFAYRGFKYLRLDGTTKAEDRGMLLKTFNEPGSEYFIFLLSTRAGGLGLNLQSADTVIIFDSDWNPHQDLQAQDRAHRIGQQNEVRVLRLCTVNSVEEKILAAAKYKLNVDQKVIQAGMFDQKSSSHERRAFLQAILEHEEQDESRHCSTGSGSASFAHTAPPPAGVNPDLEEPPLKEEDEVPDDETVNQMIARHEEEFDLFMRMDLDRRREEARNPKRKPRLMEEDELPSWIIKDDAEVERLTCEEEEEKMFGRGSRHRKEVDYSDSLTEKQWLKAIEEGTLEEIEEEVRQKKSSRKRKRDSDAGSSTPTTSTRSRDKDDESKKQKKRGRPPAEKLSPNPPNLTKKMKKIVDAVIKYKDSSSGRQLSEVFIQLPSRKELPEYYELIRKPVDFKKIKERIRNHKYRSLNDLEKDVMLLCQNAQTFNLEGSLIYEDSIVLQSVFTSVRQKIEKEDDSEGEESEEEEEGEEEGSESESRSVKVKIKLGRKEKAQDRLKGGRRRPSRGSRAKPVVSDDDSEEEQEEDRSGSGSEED
As to the kind of experiment: HiBiT-BRG1 cell-based degradation assay (Nano-Glo HiBiT lytic detection, 24 h). To be noted: HeLa cell line expressing HiBit-BRG1 and LgBit; for Dmax: read-out: BRG1 HiBit Degradation Maximum (%); for DC50: read-out: BRMG1 HiBit Degradation IC50. The method in brief: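 Luminescence from HiBiT/LgBiT complementation after lytic detection reagent was read following 24 h compound exposure of HeLa cells stably carrying HiBiT-BRG1 plus LgBiT (5000 cells/well). Signal scaled to % degradation using DMSO-treated cells as 0% and cells given 2 μM known BRM/BRG1 degrader as 100%.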
In general terms: With HiBiT, luminescence reflects the tagged protein that the partner subunit can reach.

T1 sequence (P51531 whole entry, the tested form may be a part): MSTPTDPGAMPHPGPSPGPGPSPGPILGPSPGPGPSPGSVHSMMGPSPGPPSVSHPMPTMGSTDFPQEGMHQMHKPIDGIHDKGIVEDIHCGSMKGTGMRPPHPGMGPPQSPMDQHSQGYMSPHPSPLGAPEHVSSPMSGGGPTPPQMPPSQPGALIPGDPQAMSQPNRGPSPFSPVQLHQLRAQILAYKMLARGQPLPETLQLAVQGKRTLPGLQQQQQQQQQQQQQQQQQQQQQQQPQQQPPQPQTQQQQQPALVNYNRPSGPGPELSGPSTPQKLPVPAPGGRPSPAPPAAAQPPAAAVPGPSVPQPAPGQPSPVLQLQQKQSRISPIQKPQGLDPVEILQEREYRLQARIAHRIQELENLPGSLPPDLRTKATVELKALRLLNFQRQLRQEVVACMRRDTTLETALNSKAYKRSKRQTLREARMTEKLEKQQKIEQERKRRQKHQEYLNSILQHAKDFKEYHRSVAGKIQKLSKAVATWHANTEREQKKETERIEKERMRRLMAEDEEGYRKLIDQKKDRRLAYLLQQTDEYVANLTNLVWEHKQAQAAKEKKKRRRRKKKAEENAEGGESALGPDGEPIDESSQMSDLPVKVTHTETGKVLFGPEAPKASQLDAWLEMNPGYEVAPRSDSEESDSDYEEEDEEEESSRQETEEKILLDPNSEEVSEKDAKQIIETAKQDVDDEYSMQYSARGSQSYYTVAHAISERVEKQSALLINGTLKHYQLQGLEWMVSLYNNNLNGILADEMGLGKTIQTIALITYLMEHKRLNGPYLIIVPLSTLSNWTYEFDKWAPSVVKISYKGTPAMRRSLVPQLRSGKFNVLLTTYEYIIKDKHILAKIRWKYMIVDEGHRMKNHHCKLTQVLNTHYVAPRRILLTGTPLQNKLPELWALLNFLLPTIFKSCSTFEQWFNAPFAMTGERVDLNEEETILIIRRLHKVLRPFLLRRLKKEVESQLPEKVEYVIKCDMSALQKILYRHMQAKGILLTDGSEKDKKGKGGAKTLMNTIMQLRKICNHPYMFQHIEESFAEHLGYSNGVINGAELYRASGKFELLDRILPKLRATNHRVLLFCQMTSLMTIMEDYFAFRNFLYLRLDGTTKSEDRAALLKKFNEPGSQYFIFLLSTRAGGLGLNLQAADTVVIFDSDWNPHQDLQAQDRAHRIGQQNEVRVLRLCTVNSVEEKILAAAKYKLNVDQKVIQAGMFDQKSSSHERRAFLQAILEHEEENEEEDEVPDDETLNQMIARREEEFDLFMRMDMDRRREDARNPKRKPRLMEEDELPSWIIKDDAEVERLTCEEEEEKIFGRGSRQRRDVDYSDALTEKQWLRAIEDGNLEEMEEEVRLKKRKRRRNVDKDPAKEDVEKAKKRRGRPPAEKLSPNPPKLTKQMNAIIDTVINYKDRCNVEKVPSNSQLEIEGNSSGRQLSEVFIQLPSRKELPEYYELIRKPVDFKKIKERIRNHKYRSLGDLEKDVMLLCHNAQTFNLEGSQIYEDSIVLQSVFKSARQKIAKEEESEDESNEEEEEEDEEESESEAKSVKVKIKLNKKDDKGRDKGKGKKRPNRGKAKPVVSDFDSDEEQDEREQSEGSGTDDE

With `Cc1ncsc1-c1ccc([C@H](C)NC(=O)[C@@H]2C[C@@H](O)CN2C(=O)[C@@H](c2cc(N3CC4(CC(c5cc6nnc(-c7ccccc7O)cc6n5C5CCC5)C4)C3)no2)C(C)C)cc1` [Compound 105, (2S,4R)-1-[(2R)-2-(3-{6-[5-cyclobutyl-3-(2-hydroxyphenyl)pyrrolo[3,2-c]pyridazin-6-yl]-2-azaspiro[3.3]heptan-2-yl}-1,2-oxazol-5-yl)-3-methylbutanoyl]-4-hydroxy-N-[(1S)-1-[4-(4-methyl-1,3-thiazol-5-yl)phenyl]ethyl]pyrrolidine-2-carb oxamide], on HiBit-BRM fusion protein, the “BRM HiBit Degradation Maximum (%)” value was “A (“A” indicates maximum degradation ≥75%)” and the DC50 is < 10 nM. Further, in experiment [1], the Dmax is < 50%.

Regarding `Cc1ncsc1-c1ccc([C@H](C)NC(=O)[C@@H]2C[C@@H](O)CN2C(=O)[C@@H](c2cc(-c3cnc(N4CC[C@@H](c5cc6nnc(-c7cccc(F)c7O)cc6n5C5CC5)C4)nc3)no2)C(C)C)cc1` [Compound 106, (2S,4R)-1-((R)-2-(3-(2-((R)-3-(5-cyclopropyl-3-(3-fluoro-2-hydroxyphenyl)-5H-pyrrolo[3,2-c]pyridazin-6-yl)pyrrolidin-1-yl)pyrimidin-5-yl)isoxazol-5-yl)-3-methylbutanoyl)-4-hydroxy-N-((S)-1-(4-(4-methylthiazol-5-yl)phenyl)ethyl)pyrrolidine-2-carboxamide], at HiBit-BRM fusion protein, the “BRM HiBit Degradation Maximum (%)” value is recorded as “B (“B” indicates maximum degradation ≥50%)” and the DC50 was > 10 nM. In addition, the Dmax in experiment [1] was < 50%.

On to `Cc1cc(-c2cc([C@H](C(=O)N3C[C@H](O)C[C@H]3C(=O)N[C@@H](C)c3ccc(-c4scnc4C)cc3)C(C)C)on2)cnc1N1CC[C@@H](c2cc3nnc(-c4ccccc4O)cc3n2C2CC2)C1` [Compound 107, (2S,4R)-1-((R)-2-(3-(6-((R)-3-(5-cyclopropyl-3-(2-hydroxyphenyl)-5H-pyrrolo[3,2-c]pyridazin-6-yl)pyrrolidin-1-yl)-5-methylpyridin-3-yl)isoxazol-5-yl)-3-methylbutanoyl)-4-hydroxy-N-((S)-1-(4-(4-methylthiazol-5-yl)phenyl)ethyl)pyrrolidine-2-carboxamide], for which, on HiBit-BRM fusion protein, the “BRM HiBit Degradation Maximum (%)” value is “A (“A” indicates maximum degradation ≥75%)” and the DC50 was > 10 nM. The Dmax in experiment [1] is < 50%.

Regarding `Cc1ncsc1-c1ccc([C@H](C)NC(=O)[C@@H]2C[C@@H](O)CN2C(=O)[C@@H](c2cc(-c3cnc(N4CC[C@H](c5cc6nnc(-c7cc(F)cc(F)c7O)cc6n5C5CC5)C4)nc3)no2)C(C)C)cc1` [Compound 108, (2S,4R)-1-((R)-2-(3-(2-((S)-3-(5-cyclopropyl-3-(3,5-difluoro-2-hydroxyphenyl)-5H-pyrrolo[3,2-c]pyridazin-6-yl)pyrrolidin-1-yl)pyrimidin-5-yl)isoxazol-5-yl)-3-methylbutanoyl)-4-hydroxy-N-((S)-1-(4-(4-methylthiazol-5-yl)phenyl)ethyl)pyrrolidine-2-carboxamide], on HiBit-BRM fusion protein, the “BRM HiBit Degradation Maximum (%)” value is recorded as “B (“B” indicates maximum degradation ≥50%)” and the DC50 is > 10 nM. Besides, the Dmax in experiment [1] was < 50%.

For `Cc1ncsc1-c1ccc([C@H](C)NC(=O)[C@@H]2C[C@@H](O)CN2C(=O)[C@@H](c2cc(-c3cnc(N4CC[C@H](c5cc6nnc(-c7cccc(F)c7O)cc6n5C5CC5)C4)nc3)no2)C(C)C)cc1` [Compound 109, (2S,4R)-1-((R)-2-(3-(2-((S)-3-(5-cyclopropyl-3-(3-fluoro-2-hydroxyphenyl)-5H-pyrrolo[3,2-c]pyridazin-6-yl)pyrrolidin-1-yl)pyrimidin-5-yl)isoxazol-5-yl)-3-methylbutanoyl)-4-hydroxy-N-((S)-1-(4-(4-methylthiazol-5-yl)phenyl)ethyl)pyrrolidine-2-carboxamide], at HiBit-BRM fusion protein, the “BRM HiBit Degradation Maximum (%)” value is “A (“A” indicates maximum degradation ≥75%)” and the DC50 was < 10 nM. In experiment [1], the Dmax was < 50%.

For the compound `Cc1ncsc1-c1ccc([C@H](C)NC(=O)[C@@H]2C[C@@H](O)CN2C(=O)[C@@H](c2cc(-c3cnc(N4CC[C@@H](c5cc6nnc(-c7cc(F)cc(F)c7O)cc6n5C5CC5)C4)nc3)no2)C(C)C)cc1` [Compound 111, (2S,4R)-1-((R)-2-(3-(2-((R)-3-(5-cyclopropyl-3-(3,5-difluoro-2-hydroxyphenyl)-5H-pyrrolo[3,2-c]pyridazin-6-yl)pyrrolidin-1-yl)pyrimidin-5-yl)isoxazol-5-yl)-3-methylbutanoyl)-4-hydroxy-N-((S)-1-(4-(4-methylthiazol-5-yl)phenyl)ethyl)pyrrolidine-2-carboxamide], at HiBit-BRM fusion protein, the “BRM HiBit Degradation Maximum (%)” value is listed as “A (“A” indicates maximum degradation ≥75%)” and the DC50 was < 10 nM. Moreover, in experiment [1], the Dmax was < 50%.

As for `Cc1ncsc1-c1ccc([C@H](C)NC(=O)[C@@H]2C[C@@H](O)CN2C(=O)[C@@H](c2cc(-c3cnc(N4CC[C@H](c5cc6nnc(-c7ccccc7O)cc6n5C5CCC5)C4)nc3)no2)C(C)C)cc1` [Compound 112, (2S,4R)-1-((R)-2-(3-(2-((S)-3-(5-cyclobutyl-3-(2-hydroxyphenyl)-5H-pyrrolo[3,2-c]pyridazin-6-yl)pyrrolidin-1-yl)pyrimidin-5-yl)isoxazol-5-yl)-3-methylbutanoyl)-4-hydroxy-N-((S)-1-(4-(4-methylthiazol-5-yl)phenyl)ethyl)pyrrolidine-2-carboxamide], at HiBit-BRM fusion protein, the “BRM HiBit Degradation Maximum (%)” value is on record as “A (“A” indicates maximum degradation ≥75%)” and the DC50 is > 10 nM. Also, in experiment [1], the Dmax was > 50% and the DC50 is > 10 nM.

As to `Cc1ncsc1-c1ccc([C@H](C)NC(=O)[C@@H]2C[C@@H](O)CN2C(=O)[C@@H](c2cc(N3CCC4(CC3)CC(c3cc5nnc(-c6ccccc6O)cc5n3C)C4)no2)C(C)C)cc1` [Compound 113, (2S,4R)-4-hydroxy-1-((R)-2-(3-(2-(3-(2-hydroxyphenyl)-5-methyl-5H-pyrrolo[3,2-c]pyridazin-6-yl)-7-azaspiro[3.5]nonan-7-yl)isoxazol-5-yl)-3-methylbutanoyl)-N-((S)-1-(4-(4-methylthiazol-5-yl)phenyl)ethyl)pyrrolidine-2-carboxamide], on HiBit-BRM fusion protein, the “BRM HiBit Degradation Maximum (%)” value is reported as “A (“A” indicates maximum degradation ≥75%)” and the DC50 was < 10 nM. In experiment [1], the Dmax is > 50% and the DC50 is > 10 nM.

Consider `Cc1ncsc1-c1ccc([C@H](C)NC(=O)[C@@H]2C[C@@H](O)CN2C(=O)[C@@H](c2cc(-c3cnc(N4CC[C@@H](c5cc6nnc(-c7ccccc7O)cc6n5CC5CC5)C4)nc3)no2)C(C)C)cc1` [Compound 114, (2S,4R)-1-((R)-2-(3-(2-((R)-3-(5-(cyclopropylmethyl)-3-(2-hydroxyphenyl)-5H-pyrrolo[3,2-c]pyridazin-6-yl)pyrrolidin-1-yl)pyrimidin-5-yl)isoxazol-5-yl)-3-methylbutanoyl)-4-hydroxy-N-((S)-1-(4-(4-methylthiazol-5-yl)phenyl)ethyl)pyrrolidine-2-carboxamide], for which, on HiBit-BRM fusion protein, the “BRM HiBit Degradation Maximum (%)” value is “A (“A” indicates maximum degradation ≥75%)” and the DC50 was < 10 nM. In experiment [1], the Dmax is > 75% and the DC50 is > 10 nM.

As for `Cc1ncsc1-c1ccc([C@H](C)NC(=O)[C@@H]2C[C@@H](O)CN2C(=O)[C@@H](c2cc(-c3cnc(N4CC[C@H](c5cc6nnc(-c7ccccc7O)cc6n5CC5CC5)C4)nc3)no2)C(C)C)cc1` [Compound 115, (2S,4R)-1-((R)-2-(3-(2-((S)-3-(5-(cyclopropylmethyl)-3-(2-hydroxyphenyl)-5H-pyrrolo[3,2-c]pyridazin-6-yl)pyrrolidin-1-yl)pyrimidin-5-yl)isoxazol-5-yl)-3-methylbutanoyl)-4-hydroxy-N-((S)-1-(4-(4-methylthiazol-5-yl)phenyl)ethyl)pyrrolidine-2-carboxamide], at HiBit-BRM fusion protein, the “BRM HiBit Degradation Maximum (%)” value is “A (“A” indicates maximum degradation ≥75%)” and the DC50 is < 10 nM. Besides, in experiment [1], the Dmax is > 50% and the DC50 is > 10 nM.

In the case of `Cc1ncsc1-c1ccc([C@H](C)NC(=O)[C@@H]2C[C@@H](O)CN2C(=O)[C@@H](c2cc(-c3ccnc(N4CC[C@@H](c5cc6nnc(-c7ccccc7O)cc6n5C5CC5)C4)n3)no2)C(C)C)cc1` [Compound 116, (2S,4R)-1-[(2R)-2-(3-{2-[(3R)-3-[5-cyclopropyl-3-(2-hydroxyphenyl)pyrrolo[3,2-c]pyridazin-6-yl]pyrrolidin-1-yl]pyrimidin-4-yl}-1,2-oxazol-5-yl)-3-methylbutanoyl]-4-hydroxy-N-[(1S)-1-[4-(4-methyl-1,3-thiazol-5-yl)phenyl]ethyl]pyrrolidine-2-carboxamide], at HiBit-BRM fusion protein, the “BRM HiBit Degradation Maximum (%)” value is “A (“A” indicates maximum degradation ≥75%)” and the DC50 is > 10 nM. Besides, the Dmax in experiment [1] is < 50%.

For `Cc1ncsc1-c1ccc([C@H](C)NC(=O)[C@@H]2C[C@@H](O)CN2C(=O)[C@@H](c2cc(N3CCC4(CC3)CC(c3cc5nnc(-c6ccccc6O)cc5n3C3CC3)C4)no2)C(C)C)cc1` [Compound 117, (2S,4R)-1-((R)-2-(3-(2-(5-cyclopropyl-3-(2-hydroxyphenyl)-5H-pyrrolo[3,2-c]pyridazin-6-yl)-7-azaspiro[3.5]nonan-7-yl)isoxazol-5-yl)-3-methylbutanoyl)-4-hydroxy-N-((S)-1-(4-(4-methylthiazol-5-yl)phenyl)ethyl)pyrrolidine-2-carboxamide], at HiBit-BRM fusion protein, the “BRM HiBit Degradation Maximum (%)” value is “A (“A” indicates maximum degradation ≥75%)” and the DC50 was < 10 nM. In addition, the Dmax in experiment [1] was < 50%.
